Experimental data reported in patent publication US20030199671A1, “Binding molecules for Fc-region polypeptides” (priority 2001, published 2003).
Like-named read-outs stand apart in the source and are kept apart here. Positions of bridges follow the written chain, without caps; N, C: chain ends. Residues, ends and D or L forms follow the SMILES beside them.

Assays:
human plasma IgG1 = target: T1, human plasma IgG1 (Homo sapiens, UniProt P01857); assay: Fluorescence anisotropy binding, Oregon Green labeled peptide
T1 construct: the individual human plasma IgG isoforms: IgG1, IgG2, IgG3, or IgG4; purchased Calbiochem; host or cells: human plasma
T1 sequence (P01857 1-330 isoform P01857-1): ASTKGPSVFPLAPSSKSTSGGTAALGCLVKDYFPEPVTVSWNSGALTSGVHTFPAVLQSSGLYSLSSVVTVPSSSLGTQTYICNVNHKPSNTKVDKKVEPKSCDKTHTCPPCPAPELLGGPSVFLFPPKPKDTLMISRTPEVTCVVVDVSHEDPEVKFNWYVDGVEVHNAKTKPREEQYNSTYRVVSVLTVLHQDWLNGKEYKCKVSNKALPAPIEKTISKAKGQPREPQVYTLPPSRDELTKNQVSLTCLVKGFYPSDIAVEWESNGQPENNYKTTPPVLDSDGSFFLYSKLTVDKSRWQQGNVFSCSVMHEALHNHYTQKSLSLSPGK
Summary of the method: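 Oregon Green-labeled peptides binding to human plasma IgG isoforms measured by fluorescence anisotropy. Buffers with 0.01% Tween 20: 10 mM sodium citrate pH 4.0 with 500 mM NaCl; Tris-HCl pH 7.5 with 500 mM NaCl; 10 mM sodium bicarbonate pH 9.5 with or without 500 mM NaCl.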

human plasma IgG2 = target: T2, human plasma IgG2 (Homo sapiens, UniProt P01859); assay: as above
T2 construct: the individual human plasma IgG isoforms: IgG1, IgG2, IgG3, or IgG4; purchased Calbiochem; host or cells: human plasma
T2 sequence (P01859 1-326 isoform P01859-1): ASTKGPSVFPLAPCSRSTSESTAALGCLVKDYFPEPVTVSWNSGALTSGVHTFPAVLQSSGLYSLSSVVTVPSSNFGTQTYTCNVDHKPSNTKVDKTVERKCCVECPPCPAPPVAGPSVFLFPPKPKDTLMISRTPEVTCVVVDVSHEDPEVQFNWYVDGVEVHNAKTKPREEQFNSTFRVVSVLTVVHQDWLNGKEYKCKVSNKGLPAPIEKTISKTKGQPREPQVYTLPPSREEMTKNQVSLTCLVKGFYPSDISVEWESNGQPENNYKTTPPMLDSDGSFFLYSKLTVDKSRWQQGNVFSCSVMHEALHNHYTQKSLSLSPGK

human plasma IgG3 = target: T3, human plasma IgG3 (Homo sapiens, UniProt P01860); assay: as above
T3 construct: the individual human plasma IgG isoforms: IgG1, IgG2, IgG3, or IgG4; purchased Calbiochem; host or cells: human plasma
T3 sequence (P01860 1-377 isoform P01860-1): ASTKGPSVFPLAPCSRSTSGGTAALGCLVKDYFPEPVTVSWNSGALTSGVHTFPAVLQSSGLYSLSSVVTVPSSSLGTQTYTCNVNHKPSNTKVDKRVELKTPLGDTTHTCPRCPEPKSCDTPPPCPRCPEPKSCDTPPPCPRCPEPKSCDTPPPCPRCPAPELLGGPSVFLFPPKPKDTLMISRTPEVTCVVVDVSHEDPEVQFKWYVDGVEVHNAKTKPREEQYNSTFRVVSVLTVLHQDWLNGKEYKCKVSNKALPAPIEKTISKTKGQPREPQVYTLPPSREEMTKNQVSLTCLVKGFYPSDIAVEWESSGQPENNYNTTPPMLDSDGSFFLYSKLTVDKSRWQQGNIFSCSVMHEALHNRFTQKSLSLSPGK

bovine IgG = assay type: binding; conditions: Table 11; unfractionated IgG
Summary of the method: (§1)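 Species specificity was assessed by static binding of unfractionated IgG to peptide resin in pH 7.2 phosphate or pH 7.5 Tris buffer with 0.01% Tween 20. Bound fraction was calculated from A280 of unbound target.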

goat IgG = assay type: binding; conditions: Table 11; unfractionated IgG
Summary of the method: as §1

human IgG1 = target: T4, human IgG1 (Homo sapiens, UniProt P01857); assay type: binding; conditions: Table 9; immobilized peptide, 5.0 mg/ml resin load
T4 construct: all human subtypes derived from myeloma patients; purchased Calbiochem 400120; host or cells: myeloma patients
T4 sequence (P01857 1-330 isoform P01857-1): as the sequence (P01857 1-330 isoform P01857-1) above
Summary of the method: (§2)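 Read-out is A280 of unbound IgG (1.4 mg/ml extinction coefficient), with percent bound derived against non-filtered or negative controls. Targets were incubated with immobilized peptides in PBST or TBST for 1-1.5 h at room temperature. Hydrolyzed Sepharose and immobilized Protein A serve as negative and positive controls.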

human IgG2 = target: T5, human IgG2 (Homo sapiens, UniProt P01859); assay type: binding; conditions: Table 9; immobilized peptide, 5.0 mg/ml resin load
T5 construct: all human subtypes derived from myeloma patients; purchased Calbiochem 400122; host or cells: myeloma patients
T5 sequence (P01859 1-326 isoform P01859-1): as the sequence (P01859 1-326 isoform P01859-1) above
Summary of the method: as §2

human IgG = assay type: binding; conditions: Table 11; unfractionated IgG
Summary of the method: as §1

mouse IgG = assay type: binding; conditions: Table 11; unfractionated IgG
Summary of the method: as §1

IgG3 = IgG3 (Homo sapiens, UniProt P01860); assay type: binding; set-up: all human subtypes derived from myeloma patients; purchased Calbiochem 400124; host or cells: myeloma patients; conditions: Table 9; immobilized peptide, 5.0 mg/ml resin load
Sequence of IgG3 (P01860 1-377 isoform P01860-1): as the sequence (P01860 1-377 isoform P01860-1) above
Summary of the method: as §2

IgG4 = IgG4 (Homo sapiens, UniProt P01861); assay type: binding; set-up: all human subtypes derived from myeloma patients; purchased Calbiochem 400126; host or cells: myeloma patients; conditions: Table 9; immobilized peptide, 5.0 mg/ml resin load
Sequence of IgG4 (P01861 1-327 isoform P01861-1): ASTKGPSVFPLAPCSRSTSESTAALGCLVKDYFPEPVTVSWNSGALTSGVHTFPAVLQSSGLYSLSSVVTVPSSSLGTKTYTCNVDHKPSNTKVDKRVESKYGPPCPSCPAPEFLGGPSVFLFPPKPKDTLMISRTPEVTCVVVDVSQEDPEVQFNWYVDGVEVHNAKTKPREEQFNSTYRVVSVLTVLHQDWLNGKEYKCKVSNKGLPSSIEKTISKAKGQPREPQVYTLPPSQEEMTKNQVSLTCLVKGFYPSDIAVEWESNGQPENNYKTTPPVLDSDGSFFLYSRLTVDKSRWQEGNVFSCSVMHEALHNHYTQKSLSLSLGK
Summary of the method: as §2

[1] = 10 nM Tris-HCl, 500 mM Sodium Chloride, pH 7.5, read-out: KD (μM) IgG1 pH 7.5 + salt
[2] = 10 mM Sodium Bicarbonate, 500 mM Sodium Chloride, pH 9.5, read-out: KD (μM) IgG1 pH 9.5 + salt
[3] = 10 mM Sodium Bicarbonate, pH 9.5, read-out: KD (μM) IgG1 pH 9.5 − salt
[4] = 10 mM Sodium Citrate, 500 mM Sodium Chloride, pH 4.0, read-out: KD (μM) IgG1 pH 4.0 + salt
[5] = 10 mM Sodium Citrate, pH 4.0, read-out: KD (μM) IgG1 pH 4.0 − salt
[6] = 10 mM Tris-HCl, pH 7.5, read-out: KD (μM) IgG1 pH 7.5 − salt
[7] = TBS, 0.01% Tween 20, pH 7.5, read-out: KD (μM) IgG1 TBS
[8] = 10 nM Tris-HCl, 500 mM Sodium Chloride, pH 7.5, read-out: KD (μM) IgG2 pH 7.5 + salt
[9] = 10 mM Sodium Bicarbonate, 500 mM Sodium Chloride, pH 9.5, read-out: KD (μM) IgG2 pH 9.5 + salt
[10] = 10 mM Sodium Bicarbonate, pH 9.5, read-out: KD (μM) IgG2 pH 9.5 − salt
[11] = 10 mM Sodium Citrate, 500 mM Sodium Chloride, pH 4.0, read-out: KD (μM) IgG2 pH 4.0 + salt
[12] = 10 mM Sodium Citrate, pH 4.0, read-out: KD (μM) IgG2 pH 4.0 − salt
[13] = 10 mM Tris-HCl, pH 7.5, read-out: KD (μM) IgG2 pH 7.5 − salt
[14] = TBS, 0.01% Tween 20, pH 7.5, read-out: KD (μM) IgG2 TBS
[15] = 10 nM Tris-HCl, 500 mM Sodium Chloride, pH 7.5, read-out: KD (μM) IgG3 pH 7.5 + salt
[16] = 10 mM Sodium Bicarbonate, 500 mM Sodium Chloride, pH 9.5, read-out: KD (μM) IgG3 pH 9.5 + salt
[17] = 10 mM Sodium Bicarbonate, pH 9.5, read-out: KD (μM) IgG3 pH 9.5 − salt
[18] = 10 mM Sodium Citrate, 500 mM Sodium Chloride, pH 4.0, read-out: KD (μM) IgG3 pH 4.0 + salt
[19] = 10 mM Sodium Citrate, pH 4.0, read-out: KD (μM) IgG3 pH 4.0 − salt
[20] = 10 mM Tris-HCl, pH 7.5, read-out: KD (μM) IgG3 pH 7.5 − salt
[21] = TBS, 0.01% Tween 20, pH 7.5, read-out: KD (μM) IgG3 TBS

Row | Structure (SMILES) | Kd (human plasma IgG1; [1]) | Kd (human plasma IgG1; [2]) | Kd (human plasma IgG1; [3]) | Kd (human plasma IgG1; [4]) | Kd (human plasma IgG1; [5]) | Kd (human plasma IgG1; [6]) | Kd (human plasma IgG1; [7]) | Kd (human plasma IgG2; [8]) | Kd (human plasma IgG2; [9]) | Kd (human plasma IgG2; [10]) | Kd (human plasma IgG2; [11]) | Kd (human plasma IgG2; [12]) | Kd (human plasma IgG2; [13]) | Kd (human plasma IgG2; [14]) | Kd (human plasma IgG3; [16]) | Kd (human plasma IgG3; [17]) | Kd (human plasma IgG3; [18]) | Kd (human plasma IgG3; [19]) | Kd (human plasma IgG3; [20]) | Kd (human plasma IgG3; [21]) | also measured
1 | CC(=O)N[C@@H](C)C(=O)NCC(=O)N1CCC[C@H]1C(=O)N[C@@H](Cc1c[nH]cn1)C(=O)N[C@@H](CC(N)=O)C(=O)N[C@H]1CSSC[C@@H](C(=O)N[C@@H](CCCCN)C(=O)N[C@@H](Cc2c[nH]c3ccccc23)C(=O)N[C@@H](Cc2ccccc2)C(=O)N2CCC[C@H]2C(=O)NCC(=O)N2CCC[C@H]2C(=O)N[C@@H](CCC(=O)O)C(=O)NCC(=O)NCC(=O)NCC(=O)N[C@@H](CCCCN)C(N)=O)NC(=O)[C@H](Cc2ccc(O)cc2)NC(=O)[C@H](Cc2c[nH]c3ccccc23)NC(=O)[C@H](Cc2ccc(O)cc2)NC(=O)[C@H](Cc2c[nH]cn2)NC(=O)[C@H](CC(=O)O)NC(=O)[C@H](CC(=O)O)NC1=O [DX389] (Ac-AGPHNCDDHYWYCKWFPGPEGGGK-NH2; disulfide 6-13 (inferred)) | > 10 µM | > 10 µM | > 10 µM | > 10 µM | > 10 µM | > 10 µM | > 10 µM | > 10 µM | > 10 µM | > 10 µM | > 10 µM | > 10 µM | > 10 µM | > 10 µM | > 10 µM | > 10 µM | ~2 µM | ~2 µM | > 10 µM | > 10 µM | Kd (human plasma IgG3; [15]): > 10 µM; % IgG Capture - Batch Binding, Bovine IgG (bovine IgG): 0%; % IgG Capture - Batch Binding, Goat IgG (goat IgG): 0%; % IgG Capture - Batch Binding, Human IgG1 (human IgG1): 4%; % IgG Capture - Batch Binding, Human IgG2 (human IgG2): 11%; % IgG Capture - Batch Binding, Human IgG (human IgG): 4%; % IgG Capture - Batch Binding, Mouse IgG (mouse IgG): 0%; % IgG Capture - Batch Binding, Human IgG3 (IgG3): 26%; % IgG Capture - Batch Binding, Human IgG4 (IgG4): 3%
2 | CC(=O)N[C@@H](C)C(=O)NCC(=O)N[C@@H](CCCCN)C(=O)N[C@@H](Cc1ccc(O)cc1)C(=O)N[C@@H](Cc1c[nH]c2ccccc12)C(=O)N[C@H]1CSSC[C@@H](C(=O)N2CCC[C@H]2C(=O)N[C@@H](C)C(=O)N[C@@H](CC(N)=O)C(=O)N2CCC[C@H]2C(=O)NCC(=O)N2CCC[C@H]2C(=O)N[C@@H](CCC(=O)O)C(=O)NCC(=O)NCC(=O)NCC(=O)N[C@@H](CCCCN)C(N)=O)NC(=O)[C@H](C(C)C)NC(=O)CNC(=O)[C@H](Cc2c[nH]c3ccccc23)NC(=O)[C@H](CC(C)C)NC(=O)[C@H](CC(N)=O)NC1=O [DX395] | > 10 µM | > 10 µM | > 10 µM | > 10 µM | > 10 µM | > 10 µM | > 10 µM | > 10 µM | > 10 µM | > 10 µM | > 10 µM | > 10 µM | > 10 µM | > 10 µM | > 10 µM | > 10 µM | 1 to 2 µM | 1 ± 0.26 µM | > 10 µM | > 10 µM | % IgG Capture - Batch Binding, Bovine IgG (bovine IgG): 0%; % IgG Capture - Batch Binding, Goat IgG (goat IgG): 0%; % IgG Capture - Batch Binding, Human IgG1 (human IgG1): 21%; % IgG Capture - Batch Binding, Human IgG2 (human IgG2): 2%; % IgG Capture - Batch Binding, Human IgG (human IgG): 19%; % IgG Capture - Batch Binding, Mouse IgG (mouse IgG): 0%; % IgG Capture - Batch Binding, Human IgG3 (IgG3): 85%; % IgG Capture - Batch Binding, Human IgG4 (IgG4): 4%
3 | CC[C@H](C)[C@@H]1NC(=O)[C@H](CCCCN)NC(=O)[C@@H](NC(=O)[C@H](Cc2c[nH]c3ccccc23)NC(=O)[C@H](Cc2ccc(O)cc2)NC(=O)[C@H](CO)NC(=O)CNC(=O)[C@H](C)NC(C)=O)CSSC[C@@H](C(=O)N2CCC[C@H]2C(=O)N[C@@H](CCC(N)=O)C(=O)N[C@@H](CO)C(=O)N2CCC[C@H]2C(=O)NCC(=O)N2CCC[C@H]2C(=O)N[C@@H](CCC(=O)O)C(=O)NCC(=O)NCC(=O)NCC(=O)N[C@@H](CCCCN)C(N)=O)NC(=O)[C@H](C(C)C)NC(=O)[C@H](CC(=O)O)NC(=O)[C@H](Cc2c[nH]c3ccccc23)NC1=O [DX392] (Ac-AGSYWCKIWDVCPQSPGPEGGGK-NH2; disulfide 6-12 (inferred)) | > 10 µM | > 10 µM | > 10 µM | > 10 µM | > 10 µM | > 10 µM | > 10 µM | > 10 µM | > 10 µM | > 10 µM | > 10 µM | > 10 µM | > 10 µM | > 10 µM | > 10 µM | > 10 µM | 0.3 to 0.6 µM | 0.3 to 0.6 µM | > 10 µM | > 10 µM | Kd (human plasma IgG3; [15]): > 10 µM; % IgG Capture - Batch Binding, Bovine IgG (bovine IgG): 0%; % IgG Capture - Batch Binding, Goat IgG (goat IgG): 0%; % IgG Capture - Batch Binding, Human IgG1 (human IgG1): 13%; % IgG Capture - Batch Binding, Human IgG2 (human IgG2): 15%; % IgG Capture - Batch Binding, Human IgG (human IgG): 4%; % IgG Capture - Batch Binding, Mouse IgG (mouse IgG): 0%; % IgG Capture - Batch Binding, Human IgG3 (IgG3): 76%; % IgG Capture - Batch Binding, Human IgG4 (IgG4): 9%
